Experimental data taken from patent publication US5008267A, “Pyrimidinedione compounds, method of producing the same and antiarrythmic agents containing the same” (Mitsui Toatsu Chemicals, Incorporated, priority 1988, dated 1991).
Counter-ions that a name gives are not always drawn. Like-named read-outs stand apart in the source and are kept apart here.

Tests used:
[1] = tested on: ventricular muscle refractory period; experiment: Influence on ventricular muscle refractory period (ERP); format: in vivo, mongrel dog; conditions: Canis lupus familiaris, iv, i.v., (W-Y)/Y×100, read-out: ERP (%; extensibility of refractory period)
Protocol: (2) Influence on ventricular muscle refractory period Refractory periods were measured in the following manner before and after each of the compounds and d-sotalol shown in Table 2 was separately administered to a vein or a duodenum, and ERP (%; extensibility of refractory period) was calculated from the measured values: ERP (%)=(W-Y)/Y×100 W: Refractory period after administration Y: Refractory period before administration To a mongrel adult dog, 30 mg/kg of pentobarbital was administered intravenously, and after being anesthetized, a pair of silver-silver chloride electrodes separated by 3 mm was sewn on an opened right ventricule, and electrical stimulation was given at an interval of 400 msec at a duration time of 4 msec under a current twice as much as the threshold. Afterward, a small amount of alcohol was injected into a sinus artery in order to extinguish a pacemaker activity, and the ventricular refractory period (ERP) was measured under ventricule pacing. That is, each 1 train comprised 10 stimulations having intervals of 400 msec, and an interval between the trains was usually 400 msec. However, this interval was shortened 10 msec by 10 msec at the time of the refractory period measurement, and an interval between the trains at the time when reaction to the first stimulation of the train disappeared was regarded as the refractory period. In this case, the electrical stimulation was fed in accordance with a program by a heart stimulation device (Diamedical Co., Ltd.; DHM-226-3).

[2] = tested on: Purkinje fiber of the right ventricular free wall (myocardial action potential); experiment: Influence on myocardial action potential duration time (APD75), isolated right ventricular free wall, microelectrode in Purkinje fiber; format: cell-based, dog; conditions: Canis lupus familiaris, 20 min
[3] = 1.0 μg/ml, 20 minutes' incubation, (B-A)/A×100, read-out: APD75 (%)
[4] = 3.0 μg/ml, 20 minutes' incubation, (B-A)/A×100, read-out: APD75 (%)
[5] = 10.0 μg/ml, 20 minutes' incubation, (B-A)/A×100, read-out: APD75 (%)

With `Cn1c(N2CCN(CCCc3ccc([N+](=O)[O-])cc3)CC2)cc(=O)n(C)c1=O` [Compound 33, 1,3-dimethyl-6-{4-[3-(4-nitrophenyl)propyl]piperazin-1-yl)-2,4(1H,3H)-pyrimidinedione oxalate] the change in vivo at 0.1 mg/kg [1] was 14.3%, the change in vivo at 0.3 mg/kg [1] was 14.3% and the change in vivo at 1 mg/kg [1] was 17.9%. It also gave a change in vivo at 3 mg/kg [1] of 21.4%, an activation at 1 µg/mL [2, 3] of 17% and an activation at 3 µg/mL [2, 4] of 22%. It also gave an activation at 10 µg/mL [2, 5] of 31%.
Molecule `Cn1c(NCCN(CCO)CCCc2ccc([N+](=O)[O-])cc2)c([N+](=O)[O-])c(=O)n(C)c1=O` [Compound 180, 1,3-dimethyl-6-{2-[N-(2-hydroxethyl)-3-(4-nitrophenyl)propylamino]ethylamino}-5-nitro-2,4(1H,3H)-pyrimidinedione hydrochloride] has an activation at 1 µg/mL ([2]; read-out: APD75 (%)) of 11%, an activation at 3 µg/mL ([2]; read-out: APD75 (%)) of 20% and an activation at 10 µg/mL ([2]; read-out: APD75 (%)) of 26%.
`Cn1c(NCCNCc2ccc([N+](=O)[O-])cc2)cc(=O)n(C)c1=O` [Compound 15, 1,3-dimethyl-6-[2-(4-nitrobenzylamino)ethylamino]-2,4(1H,3H)-pyrimidinedione oxalate] gave a change in vivo at 0.1 mg/kg [1] of 6.3%, a change in vivo at 0.3 mg/kg [1] of 12.5% and a change in vivo at 1 mg/kg [1] of 12.5%. The change in vivo at 3 mg/kg [1] was 18.8%, the activation at 3 µg/mL [2, 4] was 6% and the activation at 10 µg/mL [2, 5] was 16%.
`Cn1c(N2CCN(CC(O)c3ccc([N+](=O)[O-])cc3)CC2)cc(=O)n(C)c1=O` (stereo not shown) [Compound 44, 1,3-dimethyl-6-{4-[2-hydroxy-2-(4-nitrophenyl)ethyl]piperazin-1-yl}-2,4-(1H,3H)-pyrimidinedione hydrochloride] gave a change in vivo at 0.1 mg/kg [1] of 0%, a change in vivo at 0.3 mg/kg [1] of 7.7% and a change in vivo at 1 mg/kg [1] of 19.9%. For the same molecule, the change in vivo at 3 mg/kg [1] was 27.8%, the activation at 1 µg/mL [2, 3] was 5% and the activation at 3 µg/mL [2, 4] was 13%. For the same molecule, the activation at 10 µg/mL [2, 5] was 21%.
With `Cn1c(N2CCN(CCCOc3ccc([N+](=O)[O-])cc3N)CC2)cc(=O)n(C)c1=O` [Compound 153, 1,3-dimethyl-6-{4-[3-(2-amino-4-nitrophenyloxy)propyl]piperazin-1-yl}-2,4(1H,3H)-pyrimidinedione oxalate] the change in vivo at 0.1 mg/kg [1] was 6.1%, the change in vivo at 0.3 mg/kg [1] was 9.1% and the change in vivo at 1 mg/kg [1] was 18.3%. The activation at 1 µg/mL [2, 3] was 20% and the activation at 3 µg/mL [2, 4] was 25%.
For `Cn1c(N2CCN(CCCOc3ccc([N+](=O)[O-])cc3C(=O)c3ccccc3O)CC2)cc(=O)n(C)c1=O` [Compound 104, 1,3-dimethyl-6-{4-<3-[2-(2-hydroxybenzoyl)-4-nitrophenoxy]propyl>piperazin-1-yl}-2,4(1H,3H)-pyrimidinedione oxalate], the activation at 3 µg/mL [2, 4] was 16% and the activation at 10 µg/mL [2, 5] was 25%.
For `Cn1c(NCCNCCc2ccc([N+](=O)[O-])cc2)cc(=O)n(C)c1=O` [Compound 16, 1,3-dimethyl-6-{2-[2-(4-nitrophenyl)ethylamino]ethylamino}-2,4(1H,3H)-pyrimidinedione oxalate], the change in vivo at 0.1 mg/kg [1] was 6.7%, the change in vivo at 0.3 mg/kg [1] was 13.3% and the change in vivo at 1 mg/kg [1] was 13.3%. The activation at 3 µg/mL [2, 4] was 22%.
With `Cn1c(N2CCN(CCCNc3ccc([N+](=O)[O-])cc3)CC2)cc(=O)n(C)c1=O` [Compound 58] the activation at 1 µg/mL [2, 3] was 10%, the activation at 3 µg/mL [2, 4] was 18% and the activation at 10 µg/mL [2, 5] was 28%.
`Cn1c(N2CCN(CCOc3ccc([N+](=O)[O-])cc3C(=O)c3ccccc3)CC2)cc(=O)n(C)c1=O` [Compound 99] showed a change in vivo at 0.1 mg/kg [1] of 9.8%, a change in vivo at 0.3 mg/kg [1] of 14.7% and a change in vivo at 1 mg/kg [1] of 23.1%. For the same molecule, the activation at 1 µg/mL [2, 3] was 9%, the activation at 3 µg/mL [2, 4] was 22% and the activation at 10 µg/mL [2, 5] was 29%.
`Cn1c(N2CCN(CCc3ccc([N+](=O)[O-])cc3)CC2)cc(=O)n(C)c1=O` [Compound 14, 1,3-dimethyl-6-{4-[2-(4-nitrophenyl)ethyl]piperazin-1-yl}-2,4(1H,3H)-pyrimidinedione hydrochloride] showed a change in vivo at 0.1 mg/kg [1] of 14%, a change in vivo at 0.3 mg/kg [1] of 33.5% and an activation at 0.3 µg/mL ([2]; 0.3 μg/ml, 20 minutes' incubation, (B-A)/A×100) of 18%. It also gave an activation at 1 µg/mL [2, 3] of 43%.
With `Cn1c(N2CCN(CCCOc3ccc(Cl)cc3[N+](=O)[O-])CC2)cc(=O)n(C)c1=O` [Compound 140, 1,3-dimethyl-6-{4-[3-(4-chloro-2-nitrophenoxy)propyl]piperazin-1-yl}-2,4(1H,3H)-pyrimidinedione hydrochloride] the change in vivo at 0.1 mg/kg [1] was 0%, the change in vivo at 0.3 mg/kg [1] was 3.55% and the change in vivo at 1 mg/kg [1] was 3.55%. It also gave an activation at 1 µg/mL [2, 3] of 6%, an activation at 3 µg/mL [2, 4] of 17% and an activation at 10 µg/mL [2, 5] of 29%.
Molecule `Cn1c(N2CCN(CCCOc3ccccc3[N+](=O)[O-])CC2)cc(=O)n(C)c1=O` [Compound 55, 1,3-dimethyl-6-{4-[3-(2-nitrophenoxy)propyl]piperazin-1-yl}-2.4(1H,3H)-pyrimidinedione hydrochloride] has a change in vivo at 0.1 mg/kg [1] of 0%, a change in vivo at 0.3 mg/kg [1] of 0% and a change in vivo at 1 mg/kg [1] of 6.8%. For the same molecule, the change in vivo at 3 mg/kg [1] was 13.6%, the activation at 3 µg/mL [2, 4] was 18% and the activation at 10 µg/mL [2, 5] was 39%.
With `COCCN(CCCc1ccc([N+](=O)[O-])cc1)CCNc1cc(=O)n(C)c(=O)n1C` [Compound 171, 1,3-dimethyl-6-{2-[N-(2-methoxyethyl)-3-(4-nitrophenyl)propylamino]ethylamino}-2,4(1H,3H)-pyrimidinedione oxalate] the activation at 1 µg/mL [2, 3] was 19%, the activation at 3 µg/mL [2, 4] was 23% and the activation at 10 µg/mL [2, 5] was 38%.
`CC(=O)c1ccc(OCCN2CCN(c3cc(=O)n(C)c(=O)n3C)CC2)c([N+](=O)[O-])c1` [Compound 102] gave an activation at 1 µg/mL [2, 3] of 7% and an activation at 3 µg/mL [2, 4] of 20%.
With `Cn1c(N2CCN(c3ccc([N+](=O)[O-])cc3)CC2)cc(=O)n(C)c1=O` [Compound 1, 1,3-dimethyl-6-[4-(4-nitrophenyl)piperazin-1-yl]-2,4(1H,3H)-pyrimidinedione] the change in vivo at 0.1 mg/kg [1] was 3.6%, the change in vivo at 0.3 mg/kg [1] was 3.6% and the change in vivo at 1 mg/kg [1] was 10.3%.
With `CC(=O)c1cc([N+](=O)[O-])ccc1NCCCN1CCN(c2cc(=O)n(C)c(=O)n2C)CC1` [Compound 120, 1,3-dimethyl-6-{4-[3-(2-acetyl-4-nitroanilino)propyl]piperazin-1-yl}-2,4(1H,3H)-pyrimidinedione oxalate] the activation at 1 µg/mL [2, 3] was 16%, the activation at 3 µg/mL [2, 4] was 27% and the activation at 10 µg/mL [2, 5] was 29%.
Molecule `CCN(CCCNc1ccc([N+](=O)[O-])cc1)CCNc1cc(=O)n(C)c(=O)n1C` [Compound 73, 1,3-dimethyl-6-{2-[N-ethyl-3-(4-nitroanilino)propylamino]ethylamino}-2,4(1H,3H)-pyrimidinedione hydrochloride] has an activation at 1 µg/mL [2, 3] of 2%, an activation at 3 µg/mL [2, 4] of 12% and an activation at 10 µg/mL [2, 5] of 18%.
In the case of `Cn1c(N2CCN(CC(=O)Nc3ccc([N+](=O)[O-])cc3)CC2)cc(=O)n(C)c1=O` [Compound 47, 1,3-dimethyl-6-{4-[N-(4-nitrophenyl)carbamoylmethyl]piperazin-1-yl}-2,4(1H,3H)pyrimidinedione oxalate], the activation at 1 µg/mL [2, 3] is reported as 5%, the activation at 3 µg/mL [2, 4] is reported as 11% and the activation at 10 µg/mL [2, 5] is reported as 16%.
For `Cn1c(NCCNC2CCN(c3ccc([N+](=O)[O-])cc3)CC2)cc(=O)n(C)c1=O` [Compound 61, 1,3-dimethyl-6-{2-[[1-(4-nitrophenyl)piperidin-4-yl]amino]ethylamino}-2,4(1H,3H)-pyrimidinedione oxalate], the change in vivo at 0.1 mg/kg [1] was 8.3%, the change in vivo at 0.3 mg/kg [1] was 8.3% and the change in vivo at 1 mg/kg [1] was 8.3%.
